# Assay results published in the NIST ThermoML archive (doi:10.1016/j.fluid.2006.03.018).
# ± gives the expanded uncertainty stated by the source.
# How the values were obtained:
# [1] = refractive index (Na D-line) (dimensionless); details: 298.15 K; 101.33 kPa; Liquid
# [2] = for mass density: 298.15 K, 101.33 kPa
SMILES,refractive index [1],mass density ([2]; Liquid) [kg/m3],further results
Cc1ccccc1O [2-methylphenol],1.5468 ± 0.001,1046 ± 2.9,"vapor or sublimation pressure ([2]; 461.85 K, Liquid): 95.76 ± 4.8 kPa"
CC(C)(C)O [2-methylpropan-2-ol],1.3852 ± 0.001,781.2 ± 2,"vapor or sublimation pressure ([2]; 354.05 K, Liquid): 95.23 ± 4.8 kPa; vapor or sublimation pressure ([2]; 354.15 K, Liquid): 95.76 ± 4.8 kPa"
CCC(C)O (stereo not drawn) [butan-2-ol],1.3953 ± 0.001,802.4 ± 2.1,"vapor or sublimation pressure ([2]; 371.15 K, Liquid): 95.23 ± 4.8 kPa; vapor or sublimation pressure ([2]; 371.35 K, Liquid): 95.76 ± 4.8 kPa"
Cc1ccc(O)cc1 [4-methylphenol],1.539 ± 0.001,,"mass density ([2]; Crystal): 1155 ± 4 kg/m3; vapor or sublimation pressure ([2]; 472.85 K, Liquid): 95.23 ± 4.8 kPa"
CCCCO [butan-1-ol],1.3974 ± 0.001,805.8 ± 2.1,"vapor or sublimation pressure ([2]; 389.45 K, Liquid): 95.76 ± 4.8 kPa; vapor or sublimation pressure ([2]; 391.55 K, Liquid): 95.23 ± 4.8 kPa"
CC(C)CO [2-methyl-1-propanol],1.3939 ± 0.001,797.8 ± 2,"vapor or sublimation pressure ([2]; 379.55 K, Liquid): 95.23 ± 4.8 kPa; vapor or sublimation pressure ([2]; 379.75 K, Liquid): 95.76 ± 4.8 kPa"

# Further lines, with some results ahead:
refractive index [1],mass density ([2]; Liquid) [kg/m3],SMILES,further results
1.3594 ± 0.001,784.9 ± 2,CCO [ethanol],"vapor or sublimation pressure ([2]; 349.95 K, Liquid): 95.23 ± 4.8 kPa; vapor or sublimation pressure ([2]; 350.05 K, Liquid): 95.76 ± 4.8 kPa"
1.3265 ± 0.001,786.4 ± 2,CO [methanol],"vapor or sublimation pressure ([2]; 336.15 K, Liquid): 95.23 ± 4.8 kPa; vapor or sublimation pressure ([2]; 336.35 K, Liquid): 95.76 ± 4.8 kPa"
1.3752 ± 0.001,781.3 ± 2,CC(C)O [propan-2-ol],"vapor or sublimation pressure ([2]; 353.95 K, Liquid): 95.23 ± 4.8 kPa; vapor or sublimation pressure ([2]; 354.05 K, Liquid): 95.76 ± 4.8 kPa"
1.3837 ± 0.0008,799.6 ± 2.2,CCCO [propan-1-ol],"vapor or sublimation pressure ([2]; 368.85 K, Liquid): 95.23 ± 4.8 kPa; vapor or sublimation pressure ([2]; 368.95 K, Liquid): 95.76 ± 4.8 kPa"
